According to US20150218120A1 (The Regents of the University of California, priority 2011, published 2015):
Where “and” joins values, the source holds several entries; their conditions need not be identical. Identical values can stand only once. Like-named read-outs stand apart in the source and are kept apart here.

How the values were obtained:
HIV-1 IN [1] = target: T1, HIV-1 IN (Human immunodeficiency virus type 1 group M subtype B, UniProt P12497); experiment: HIV-1 IN 3′-processing (3P) gel-based catalytic assay; type: biochemical; parameters: made in house
Text: As described above, HIV-1 IN has two functions: 3′-processing (3P) and strand transfer (ST).
Gels were dried and reaction products were visualized and quantified with a Typhoon 8600 (GE Healthcare, Little Chalfont, Buckinghamshire, UK).

HIV-1 IN [2] = target: T1, HIV-1 IN; experiment: HIV-1 IN strand transfer (ST) gel-based catalytic assay; type: biochemical; parameters: made in house; details: for IC50: Strand Transfer IC50, 32P-end labeled oligonucleotides in solution, gel-based separation
Text: As described above, HIV-1 IN has two functions: 3′-processing (3P) and strand transfer (ST). […] All 21 RCD compounds were screened for inhibitory activity against the 3P and ST reactions using published protocols (Metifiot M, et al., Biochemistry 49:3715-3722 (2010); Marchand C, Neamati N, & Pommier Y, Methods Enzymol 340:624-633 (2001)).
Some assays use preassembled HIV-1 IN on immobilized oligonucleotides (Pace P, et al., J. Med. Chem. 50(9):2225-2239 (2007)), whereas the assay provided herein uses ^32-P-end labeled oligonucleotides in solution and gel-based separation of the reaction products.
Recombinant HIV-1 IN and oligonucleotide substrates were obtained as previously reported (Marinello et al. Biochemistry 2008, 47, 9345-9354; Metifiot et al. Antimicrob. Agents Chemother. 2011, 55, 5127-5133; Hare et al. Mol. Pharmacol. 2011, 80, 565-572). Integrase reactions were performed in 10 μL total volume including 400 nM HIV-1 IN, 20 nM 5′-end [^32P]-labeled oligonucleotide substrate, and 1 μL inhibitor solution in 50 mM MOPS, pH 7.2, 7.5 mM MgCl2, and 14.3 mM 2-mercaptoethanol Inhibitor dilutions were in DMSO, and DMSO without drug was used as a control. Reactions were incubated at 37° C. for 60 min, terminated by adding 10 μL loading dye (10 mM EDTA, 98% deionized formamide, 0.025% xylene cyanol, and 0.025% bromophenol blue), and were subjected to electrophoresis in 20% polyacrylamide-7 M urea gels. Gels were dried and reaction products were visualized and quantified with a Typhoon 8600 (GE Healthcare, Little Chalfont, Buckinghamshire, UK).

HIV = experiment: microbe, parasite or virus in culture; type: cell-based; details: read-out: Antiviral Activity IC50
Experimental: (§1) In addition to cell-free in vitro assays, eight RCD compounds were examined for inhibition of viral replication (Table 1) (Day J R, et al., J. Virol. Meth. 137(1):125-133 (2006)).
Computational docking was preformed using the Glide software package (Glide v5.5; Schrodinger, Inc.). Enzyme and cell-based assays were performed as previously described (Metifiot M, et al., Biochemistry 49:3715-3722 (2010); Marchand C, Neamati N, & Pommier Y, Methods Enzymol 340:624-633 (2001); Day J R, et al., J. Virol. Meth. 137(1):125-133 (2006)). Complete synthetic and experimental details are provided herein.

HIV-1 IN [3] = target: T1, HIV-1 IN; details: read-out: IC50 against the strand transfer reaction of HIV-1 IN, reported value; Pace et al. 2007; preassembled IN on immobilized oligonucleotides; cited from earlier work
P4R5 cells = experiment: Toxicity assay on P4R5 cells; type: cell-based; details: at a concentration of 10 μM
Text: as §1

[4] = Human immunodeficiency virus 1, P4/R5, P4R5 cells

| Compound | IC50 (HIV-1 IN [1]; read-out: 3'-Processing IC50) [µM] | IC50 (HIV-1 IN [2]) | other results |
| --- | --- | --- | --- |
| Cc1cc(=O)c(O)c(C(=O)NCc2ccc(F)cc2)o1 [RCD-5] | 59.5 ± 1.4 | 0.55 µM and < 15 µM |  |
| CNC(=O)c1cccc(C(=O)NCc2ccc(F)cc2)c1O [RCD-18, N1-(4-Fluorobenzyl)-2-hydroxy-N3-methylisophthalamide] |  | > 300 µM | IC50 (HIV-1 IN [1]): > 300 µM; IC50 (HIV; [4]): > 100 µM |
| O=C(NCc1ccc(F)cc1)c1ccc2cccc(O)c2n1 [RCD-13, N-(4-Fluorobenzyl)-8-hydroxyquinoline-2-carboxamide] | > 100 | > 100 µM | IC50 (HIV; [4]): > 100 µM; inhibition at 100 µM (HIV-1 IN [2]; read-out: Strand transfer inhibition): < 30% |
| O=C(NCc1ccc(F)cc1)c1ccc(C(=O)NCc2ccc(F)cc2)c(O)c1O [RCD-11, N1,N4-Bis(4-fluorobenzyl)-2,3-dihydroxyterephthalamide] | > 300 | 1.7 µM and < 2 µM |  |
| CNC(=O)c1ccc(C(=O)NCc2ccc(F)cc2)c(O)c1O [RCD-10, N1-(4-Fluorobenzyl)-2,3-dihydroxy-N4-methylterephthalamide] |  | 1.5 µM and < 15 µM and < 2 µM | IC50 (HIV-1 IN [1]): > 200 µM; IC50 (HIV; [4]): < 4 µM; IC50 (HIV; P4R5 cells): 4 µM |
| O=C(NCc1ccc(F)cc1)c1ccc2cccnc2c1O [RCD-12] |  |  | IC50 (HIV; [4]): < 4 µM; IC50 (HIV; P4R5 cells): 2.3 µM |
| O=C(NCc1ccc(F)cc1)c1ccccc1O [RCD-15, N-(4-Fluorobenzyl)-2-hydroxybenzamide] | > 100 | > 100 µM |  |
| COc1cccc(C(=O)NCc2ccc(F)cc2)c1O [RCD-9, N-(4-Fluorobenzyl)-2-hydroxy-3-methoxybenzamide] | > 100 | > 100 µM | Strand transfer activity in words (HIV-1 IN [2]; concentrations as high as 100 μM): complete loss of activity |
| Cc1nc(C(=O)NCc2ccc(F)cc2)c(O)c(=O)[nH]1 [RCD-1, N-(4-Fluorobenzyl)-5-hydroxy-2-methyl-6-oxo-1,6-dihydropyrimidine-4-carboxamide] |  | ~1 µM and 1 µM | IC50 (HIV-1 IN [1]): > 100 µM; IC50 (HIV-1 IN [3]): 0.06 µM; Selectivity for ST versus 3P reaction (HIV-1 IN [2]; ST versus 3P): selectivity for the ST versus 3P reaction |
| Cc1cc(=O)c(O)c(C(=O)NCc2ccc(F)cc2)n1C [RCD-3] | > 100 | > 100 µM |  |
| O=C(NCc1ccc(F)cc1)c1cccc(C(=O)NCc2ccc(F)cc2)c1O [RCD-19, N1,N3-Bis(4-fluorobenzyl)-2-hydroxyisophthalamide] | > 300 | > 300 µM |  |
| O=C(O)c1cccc(C(=O)NCc2ccc(F)cc2)[n+]1[O-] [RCD-16, 2-Carboxy-6-((4-fluorobenzyl)carbamoyl)pyridine 1-oxide] | 21.4 ± 3 | 9.2 ± 1.3 µM |  |
| Cc1occ(O)c(=O)c1C(=O)NCc1ccc(F)cc1 | > 100 | 56 ± 7 µM |  |
| O=C(NCc1ccc(F)cc1)c1ccc2ccc[n+]([O-])c2c1O [RCD-14, 7-((4-Fluorobenzyl)carbamoyl)-8-hydroxyquinoline 1-oxide] |  | 3.8 ± 0.3 µM | IC50 (HIV-1 IN [1]): 40.5 ± 2 µM; Toxicity on P4R5 cells (P4R5 cells): some toxicity |
| O=C(NCc1ccc(F)cc1)c1cccc(O)c1O [RCD-8, N-(4-Fluorobenzyl)-2,3-dihydroxybenzamide] | > 100 | 39.4 ± 4 µM |  |
| O=C(NCc1ccc(F)cc1)c1cccc(=O)n1O [RCD-7] | > 100 | 19.7 ± 1.6 µM |  |
| O=C(NCc1ccc(F)cc1)c1occc(=O)c1O [RCD-4] | > 100 | 0.96 µM |  |
| O=C(NCc1ccc(F)cc1)c1cccc(C(=O)NCc2ccc(F)cc2)[n+]1[O-] [RCD-17, 2,6-Bis((4-fluorobenzyl)carbamoyl)pyridine 1-oxide] |  | > 100 µM | IC50 (HIV-1 IN [1]): > 300 µM; IC50 (HIV; [4]): > 100 µM |
| Cn1ccc(=O)c(O)c1C(=O)NCc1ccc(F)cc1 [RCD-2] | > 100 | > 100 µM |  |
